Data taken from ChEMBL document CHEMBL1156950, “Synthesis and biological evaluation of 4-anilinoquinolines as potent inhibitors of epidermal growth factor receptor” (J Med Chem, 2010).
The source made the active and inactive calls. The calls are words filed in the database; no cut-off is given here.

Legend:
[1] = target: Insulin receptor (Homo sapiens) (UniProt P06213); test: Inhibition of His-IR at 10 uM assessed as residual activity by [33P]ATP radioactive filter binding assay relative to control
[2] = target: Serine/threonine-protein kinase pim-3 (Homo sapiens) (UniProt Q86V86); test: Inhibition of PIM3 at 10 uM assessed as residual activity by [33P]ATP radioactive filter binding assay relative to control
[3] = target: Mitogen-activated protein kinase 11 (Homo sapiens) (UniProt Q15759); test: Inhibition of p38beta at 10 uM assessed as residual activity by [33P]ATP radioactive filter binding assay relative to control
PC-9 = test: Cytotoxicity against human PC9 cells expressing 746-750 sequence deleted EGFR assessed as cell viability at 0.001 to 10 uM after 96 hrs by cell titer-glo assay; format: functional, cell-based
[4] = target: Serine/threonine-protein kinase 3 (Homo sapiens) (UniProt Q13188); test: Inhibition of MST2 at 10 uM assessed as residual activity by [33P]ATP radioactive filter binding assay relative to control
cells [5] = conditions: Mus musculus, BaF3, 96 h
Description: Growth inhibition of mouse BA/F3 cells expressing EGFR Del3 mutant after 96 hrs by cell titer-glo assay

[6] = target: Epidermal growth factor receptor (Homo sapiens, UniProt P00533); test: Inhibition of 746-750 sequence deleted EGFR autophosphorylation in human PC9 cells after 24 hrs by immunoblotting; format: cell-based; conditions: PC-9
[7] = target: Mitogen-activated protein kinase 13 (Homo sapiens) (UniProt O15264); test: Inhibition of p38delta at 10 uM assessed as residual activity by [33P]ATP radioactive filter binding assay relative to control
Mitogen-activated protein kinase 13 (Homo sapiens), sequence (O15264 whole entry): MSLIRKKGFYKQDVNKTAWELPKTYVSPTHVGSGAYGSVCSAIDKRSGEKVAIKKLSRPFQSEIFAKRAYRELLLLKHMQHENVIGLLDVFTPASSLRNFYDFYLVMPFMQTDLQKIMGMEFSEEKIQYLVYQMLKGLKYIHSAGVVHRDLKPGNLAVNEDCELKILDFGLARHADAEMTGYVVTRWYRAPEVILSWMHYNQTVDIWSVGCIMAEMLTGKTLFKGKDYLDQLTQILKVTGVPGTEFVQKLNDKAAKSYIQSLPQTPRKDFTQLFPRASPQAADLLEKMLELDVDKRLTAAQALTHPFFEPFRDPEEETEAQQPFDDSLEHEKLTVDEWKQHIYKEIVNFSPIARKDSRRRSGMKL

[8] = target: MAP kinase-activated protein kinase 3 (Homo sapiens) (UniProt Q16644); test: Inhibition of MAPKAPK-3 at 10 uM assessed as residual activity by [33P]ATP radioactive filter binding assay relative to control
[9] = target: Misshapen-like kinase 1 (Homo sapiens) (UniProt Q8N4C8); test: Inhibition of MINK1 at 10 uM assessed as residual activity by [33P]ATP radioactive filter binding assay relative to control
[10] = target: SRSF protein kinase 1 (Homo sapiens) (UniProt Q96SB4); test: Inhibition of SRPK1 at 10 uM assessed as residual activity by [33P]ATP radioactive filter binding assay relative to control
[11] = target: RAC-beta serine/threonine-protein kinase (Homo sapiens) (UniProt P31751); test: Inhibition of PKBbeta at 10 uM assessed as residual activity by [33P]ATP radioactive filter binding assay relative to control
[12] = target: MAP kinase-interacting serine/threonine-protein kinase 2 (Homo sapiens) (UniProt Q9HBH9); test: Inhibition of MNK2 at 10 uM assessed as residual activity by [33P]ATP radioactive filter binding assay relative to control
MAP kinase-interacting serine/threonine-protein kinase 2 (Homo sapiens), sequence (Q9HBH9 whole entry, looked up): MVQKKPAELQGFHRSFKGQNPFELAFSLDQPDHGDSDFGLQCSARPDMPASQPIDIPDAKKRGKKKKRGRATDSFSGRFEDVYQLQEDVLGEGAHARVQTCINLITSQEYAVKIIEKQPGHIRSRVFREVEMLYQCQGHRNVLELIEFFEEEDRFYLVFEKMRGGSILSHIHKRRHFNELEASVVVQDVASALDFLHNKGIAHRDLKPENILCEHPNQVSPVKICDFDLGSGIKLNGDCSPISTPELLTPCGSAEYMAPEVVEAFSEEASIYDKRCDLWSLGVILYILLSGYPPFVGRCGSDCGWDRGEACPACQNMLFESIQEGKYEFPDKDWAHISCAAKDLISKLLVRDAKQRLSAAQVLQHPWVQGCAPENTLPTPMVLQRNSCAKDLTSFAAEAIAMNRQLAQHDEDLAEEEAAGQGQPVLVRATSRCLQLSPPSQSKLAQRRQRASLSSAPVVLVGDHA

[13] = target: Rho-associated protein kinase 2 (Homo sapiens) (UniProt O75116); test: Inhibition of ROCK2 at 10 uM assessed as residual activity by [33P]ATP radioactive filter binding assay relative to control
Rho-associated protein kinase 2 (Homo sapiens), sequence (O75116 whole entry, looked up): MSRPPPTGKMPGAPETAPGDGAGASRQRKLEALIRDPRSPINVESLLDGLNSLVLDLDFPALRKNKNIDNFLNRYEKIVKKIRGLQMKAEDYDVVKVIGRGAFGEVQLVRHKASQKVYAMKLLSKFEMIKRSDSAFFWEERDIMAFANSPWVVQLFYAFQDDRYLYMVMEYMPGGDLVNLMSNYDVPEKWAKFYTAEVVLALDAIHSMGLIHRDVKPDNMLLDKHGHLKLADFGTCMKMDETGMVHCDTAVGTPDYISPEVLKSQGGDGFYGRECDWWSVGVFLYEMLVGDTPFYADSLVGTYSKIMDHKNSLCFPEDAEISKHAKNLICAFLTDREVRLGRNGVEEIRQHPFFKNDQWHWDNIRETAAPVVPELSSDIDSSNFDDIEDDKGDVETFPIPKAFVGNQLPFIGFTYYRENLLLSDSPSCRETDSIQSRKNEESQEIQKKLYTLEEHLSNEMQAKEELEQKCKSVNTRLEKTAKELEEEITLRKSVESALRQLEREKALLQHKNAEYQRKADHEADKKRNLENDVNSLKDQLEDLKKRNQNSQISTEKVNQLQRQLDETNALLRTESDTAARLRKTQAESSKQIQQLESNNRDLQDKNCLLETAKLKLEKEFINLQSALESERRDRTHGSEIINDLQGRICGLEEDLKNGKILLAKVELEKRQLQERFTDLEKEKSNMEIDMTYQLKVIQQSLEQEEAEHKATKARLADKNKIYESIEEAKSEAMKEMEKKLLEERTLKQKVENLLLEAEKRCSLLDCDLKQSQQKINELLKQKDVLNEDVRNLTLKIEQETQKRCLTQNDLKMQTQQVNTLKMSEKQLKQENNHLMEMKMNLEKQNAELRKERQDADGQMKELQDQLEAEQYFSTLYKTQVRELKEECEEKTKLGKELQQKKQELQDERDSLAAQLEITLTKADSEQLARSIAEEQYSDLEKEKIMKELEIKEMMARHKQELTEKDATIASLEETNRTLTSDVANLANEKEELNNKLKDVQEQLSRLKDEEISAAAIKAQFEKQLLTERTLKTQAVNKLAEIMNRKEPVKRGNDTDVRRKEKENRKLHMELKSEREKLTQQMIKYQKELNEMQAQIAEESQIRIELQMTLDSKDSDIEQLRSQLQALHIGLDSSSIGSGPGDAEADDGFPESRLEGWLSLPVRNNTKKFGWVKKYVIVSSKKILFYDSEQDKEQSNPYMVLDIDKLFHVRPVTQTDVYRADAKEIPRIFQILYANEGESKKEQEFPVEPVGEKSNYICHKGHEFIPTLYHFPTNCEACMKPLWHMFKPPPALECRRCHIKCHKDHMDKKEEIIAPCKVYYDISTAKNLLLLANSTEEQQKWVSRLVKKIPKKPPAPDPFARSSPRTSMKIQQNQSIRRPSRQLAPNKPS

[14] = target: Mitogen-activated protein kinase 9 (Homo sapiens) (UniProt P45984); test: Inhibition of JNK2 at 10 uM assessed as residual activity by [33P]ATP radioactive filter binding assay relative to control
cells [15] = conditions: Mus musculus, BaF3, 96 h; remark: listed apart in the source
[16] = target: Protein kinase C alpha type (Homo sapiens) (UniProt P17252); test: Inhibition of PKCalpha at 10 uM assessed as residual activity by [33P]ATP radioactive filter binding assay relative to control
[17] = target: Ribosomal protein S6 kinase alpha-1 (Homo sapiens) (UniProt Q15418); test: Inhibition of RSK1 at 10 uM assessed as residual activity by [33P]ATP radioactive filter binding assay relative to control
Ribosomal protein S6 kinase alpha-1 (Homo sapiens), sequence (Q15418 whole entry): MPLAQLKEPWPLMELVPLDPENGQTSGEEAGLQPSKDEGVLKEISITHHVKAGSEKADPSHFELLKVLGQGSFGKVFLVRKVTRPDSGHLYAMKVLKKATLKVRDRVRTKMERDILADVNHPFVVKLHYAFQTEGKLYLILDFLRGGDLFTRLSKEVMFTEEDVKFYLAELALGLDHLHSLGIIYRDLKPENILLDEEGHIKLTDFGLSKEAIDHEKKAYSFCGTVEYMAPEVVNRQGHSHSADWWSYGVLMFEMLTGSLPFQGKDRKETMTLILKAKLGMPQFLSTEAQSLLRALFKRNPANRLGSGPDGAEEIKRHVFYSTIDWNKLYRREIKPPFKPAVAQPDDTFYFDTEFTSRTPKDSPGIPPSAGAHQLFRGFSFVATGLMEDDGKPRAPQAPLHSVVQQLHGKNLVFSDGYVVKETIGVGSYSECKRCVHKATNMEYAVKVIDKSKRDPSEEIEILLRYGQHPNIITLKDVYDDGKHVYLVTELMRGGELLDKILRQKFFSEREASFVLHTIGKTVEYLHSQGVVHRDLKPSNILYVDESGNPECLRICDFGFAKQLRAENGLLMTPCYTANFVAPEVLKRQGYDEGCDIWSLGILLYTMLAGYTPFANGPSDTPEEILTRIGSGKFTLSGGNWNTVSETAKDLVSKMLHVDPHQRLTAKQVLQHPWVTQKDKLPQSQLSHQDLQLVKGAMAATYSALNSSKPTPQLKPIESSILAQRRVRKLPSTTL

[18] = target: Aurora kinase B (Homo sapiens) (UniProt Q96GD4); test: Inhibition of Aurora B at 10 uM assessed as residual activity by [33P]ATP radioactive filter binding assay relative to control
[19] = test system: 3-phosphoinositide-dependent protein kinase 1; test: Inhibition of PDK1 at 10 uM assessed as residual activity by [33P]ATP radioactive filter binding assay relative to control
[20] = target: Interleukin-1 receptor-associated kinase 4 (Homo sapiens) (UniProt Q9NWZ3); test: Inhibition of IRAK4 at 10 uM assessed as residual activity by [33P]ATP radioactive filter binding assay relative to control
[21] = target: Mitogen-activated protein kinase kinase kinase kinase 2 (Homo sapiens) (UniProt Q12851); test: Inhibition of GCK at 10 uM assessed as residual activity by [33P]ATP radioactive filter binding assay relative to control
Mitogen-activated protein kinase kinase kinase kinase 2 (Homo sapiens), sequence (Q12851 whole entry): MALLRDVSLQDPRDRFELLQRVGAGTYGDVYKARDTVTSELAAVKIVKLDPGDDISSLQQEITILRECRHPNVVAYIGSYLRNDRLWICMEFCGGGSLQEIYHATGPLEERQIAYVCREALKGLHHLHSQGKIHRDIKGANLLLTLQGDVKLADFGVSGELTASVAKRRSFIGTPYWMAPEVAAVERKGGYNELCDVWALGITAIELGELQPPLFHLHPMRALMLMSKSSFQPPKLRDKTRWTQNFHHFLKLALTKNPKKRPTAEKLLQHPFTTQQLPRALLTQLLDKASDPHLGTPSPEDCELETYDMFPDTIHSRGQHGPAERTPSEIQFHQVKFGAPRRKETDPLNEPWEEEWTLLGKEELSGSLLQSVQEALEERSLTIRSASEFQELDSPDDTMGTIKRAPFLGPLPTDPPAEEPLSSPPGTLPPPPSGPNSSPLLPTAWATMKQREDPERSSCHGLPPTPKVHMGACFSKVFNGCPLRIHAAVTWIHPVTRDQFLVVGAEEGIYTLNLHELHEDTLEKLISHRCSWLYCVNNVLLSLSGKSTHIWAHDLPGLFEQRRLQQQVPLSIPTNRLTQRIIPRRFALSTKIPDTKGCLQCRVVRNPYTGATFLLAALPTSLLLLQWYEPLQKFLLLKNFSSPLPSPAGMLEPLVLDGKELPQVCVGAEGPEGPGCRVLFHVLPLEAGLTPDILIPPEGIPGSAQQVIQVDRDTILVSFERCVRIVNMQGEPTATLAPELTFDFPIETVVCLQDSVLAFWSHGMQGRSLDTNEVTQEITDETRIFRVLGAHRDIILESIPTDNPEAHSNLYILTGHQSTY

[22] = target: MAP kinase-activated protein kinase 2 (Homo sapiens) (UniProt P49137); test: Inhibition of MAPKAP-K2 at 10 uM assessed as residual activity by [33P]ATP radioactive filter binding assay relative to control
MAP kinase-activated protein kinase 2 (Homo sapiens), sequence (P49137 whole entry, looked up): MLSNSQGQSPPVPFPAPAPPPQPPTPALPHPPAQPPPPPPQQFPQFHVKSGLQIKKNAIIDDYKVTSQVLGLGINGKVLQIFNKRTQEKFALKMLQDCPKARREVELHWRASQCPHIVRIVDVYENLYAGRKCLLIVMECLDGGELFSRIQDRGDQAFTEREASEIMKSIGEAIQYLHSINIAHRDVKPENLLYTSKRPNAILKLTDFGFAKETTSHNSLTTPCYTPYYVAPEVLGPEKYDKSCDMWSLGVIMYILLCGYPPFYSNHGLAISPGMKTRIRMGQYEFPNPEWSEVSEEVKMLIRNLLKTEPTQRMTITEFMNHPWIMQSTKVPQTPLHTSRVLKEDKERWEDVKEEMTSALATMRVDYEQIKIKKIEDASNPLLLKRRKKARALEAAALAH

[23] = target: Dual specificity tyrosine-phosphorylation-regulated kinase 1A (Homo sapiens) (UniProt Q13627); test: Inhibition of DYRK1A at 10 uM assessed as residual activity by [33P]ATP radioactive filter binding assay relative to control
[24] = target: Mitogen-activated protein kinase 15 (Homo sapiens) (UniProt Q8TD08); test: Inhibition of ERK8 at 10 uM assessed as residual activity by [33P]ATP radioactive filter binding assay relative to control
[25] = target: Ribosomal protein S6 kinase beta-1 (Homo sapiens) (UniProt P23443); test: Inhibition of S6K1 at 10 uM assessed as residual activity by [33P]ATP radioactive filter binding assay relative to control
[26] = target: Serine/threonine-protein kinase BRSK2 (Homo sapiens) (UniProt Q8IWQ3); test: Inhibition of BRSK2 at 10 uM assessed as residual activity by [33P]ATP radioactive filter binding assay relative to control
[27] = Inhibition of AMPK at 10 uM assessed as residual activity by [33P]ATP radioactive filter binding assay relative to control
[28] = target: Tyrosine-protein kinase SYK (Homo sapiens) (UniProt P43405); test: Inhibition of SYK at 10 uM assessed as residual activity by [33P]ATP radioactive filter binding assay relative to control
[29] = target: Serine/threonine-protein kinase PAK 5 (Homo sapiens) (UniProt Q9P286); test: Inhibition of PAK5 at 10 uM assessed as residual activity by [33P]ATP radioactive filter binding assay relative to control
Serine/threonine-protein kinase PAK 5 (Homo sapiens), sequence (Q9P286 whole entry, looked up): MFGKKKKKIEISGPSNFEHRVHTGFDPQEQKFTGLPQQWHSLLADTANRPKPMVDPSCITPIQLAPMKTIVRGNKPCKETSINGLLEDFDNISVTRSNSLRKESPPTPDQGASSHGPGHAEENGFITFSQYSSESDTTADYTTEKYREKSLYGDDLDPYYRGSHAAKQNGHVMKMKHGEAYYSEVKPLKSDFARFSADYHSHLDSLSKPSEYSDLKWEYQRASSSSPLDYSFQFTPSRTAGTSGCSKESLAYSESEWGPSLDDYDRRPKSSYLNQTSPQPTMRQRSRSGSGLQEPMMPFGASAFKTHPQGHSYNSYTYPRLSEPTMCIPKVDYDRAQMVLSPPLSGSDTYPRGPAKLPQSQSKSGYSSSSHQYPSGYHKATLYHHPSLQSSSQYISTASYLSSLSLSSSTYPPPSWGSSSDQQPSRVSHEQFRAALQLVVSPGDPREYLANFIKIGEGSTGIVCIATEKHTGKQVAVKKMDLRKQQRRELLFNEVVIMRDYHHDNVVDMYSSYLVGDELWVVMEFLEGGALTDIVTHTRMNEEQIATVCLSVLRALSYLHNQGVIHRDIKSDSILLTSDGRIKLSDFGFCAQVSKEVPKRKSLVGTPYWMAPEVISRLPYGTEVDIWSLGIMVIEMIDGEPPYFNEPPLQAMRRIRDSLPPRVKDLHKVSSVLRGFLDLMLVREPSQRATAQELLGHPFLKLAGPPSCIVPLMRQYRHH

[30] = target: Ephrin type-B receptor 3 (Homo sapiens) (UniProt P54753); test: Inhibition of EPH-B3 at 10 uM assessed as residual activity by [33P]ATP radioactive filter binding assay relative to control
[31] = Inhibition of PKA at 10 uM assessed as residual activity by [33P]ATP radioactive filter binding assay relative to control
[32] = target: Dual specificity protein kinase TTK (Homo sapiens) (UniProt P33981); test: Inhibition of TTK at 10 uM assessed as residual activity by [33P]ATP radioactive filter binding assay relative to control

Compound | Activity [1] [%] | Activity [2] [%] | Activity [3] [%] | Activity [4] [%] | GI50 (cells [5]) [nM] | Activity [7] [%] | Activity [8] [%] | Activity [9] [%] | Activity [10] [%] | Activity [11] [%] | Activity [12] [%] | Activity [13] [%] | Activity [14] [%] | GI50 (cells [15]) [nM] | Activity [16] [%] | Activity [17] [%] | Activity [18] [%] | Activity [20] [%] | Activity [21] [%] | Activity [22] [%] | other results
CN(C)CCCC(=O)Nc1ccc2nccc(Nc3cccc(Br)c3)c2c1 | 85 | 66 | 63 | 80 | < 500 | 76 | 72 | 12 | 75 | 61 | 21 | 88 | 50 | < 500 | 81 | 89 | 33 | 70 | 30 | 86 | Activity (PC-9): Active; Activity [6]: Dose-dependent effect; Activity [19]: 78%; Activity [23]: 85%; Activity [24]: 85%; Activity [25]: 87%; Activity [26]: 36%; Activity [27]: 83%; Activity [28]: 57%; Activity [29]: 68%; Activity [30]: 5%; Activity [31]: 86%; Activity [32]: 85%
CN(C)CCCC(=O)Nc1ccc2ncnc(Nc3cccc(Br)c3)c2c1 | 79 | 32 | 81 | 90 | < 500 | 79 | 81 | 35 | 87 | 80 | 14 | 95 | 77 | < 500 | 78 | 72 | 21 | 81 | 48 | 90 | Activity [23]: 65%; Activity [24]: 78%; Activity [26]: 29%; Activity [27]: 70%; Activity [28]: 67%; Activity [29]: 64%; Activity [30]: 17%; Activity [31]: 91%; Activity [32]: 86%
